In general, melting point refers to the temperature of the solid-liquid transition.

Regarding `Nc1ccc(Cl)nc1N`, the melting point lay within 129 to 131 °C.
Next, `O=C(O)c1ccc(NS(=O)(=O)c2ccc(F)c(Cl)c2)cc1`: 240 to 242 °C; `O=c1oc2ccccc2n1CCO`: 104 to 106 °C; `Cc1ccc(C(=O)O)c(Sc2ccccc2)n1`: 169 to 171 °C.
The molecule `Nc1ccc(F)c(NC(=O)c2ccccc2I)c1` showed a melting point of 147 to 149 °C.
In the case of `Nc1ccc(C2(c3ccc(N)cc3)CCCCC2)cc1` it was 110 to 112 °C.
`N#CC(Cl)(Cl)c1nc2ccccc2s1`: the melting point was in the range of 66 to 68 °C.
With `CC1CCCN(S(=O)(=O)c2ccc(CN)cc2)C1` (configuration not stated), the melting point lay in the range of 92 to 94 °C.
The molecule `COC(=O)CCCNc1nc2ccccc2s1` came in with a melting point of 114 to 116 °C.
In the case of `O=[N+]([O-])c1ccc(S(=O)(=O)Cl)cn1` it was 81 to 83 °C; in that of `Cc1cc(C=O)cc(C)c1OC(F)F`, 56 to 58 °C.
Regarding `Cc1cc(-c2nc(C3CC3)no2)ccc1N`, the melting point lay within 87 to 89 °C.
In the case of `Cc1cccn2cc(COc3ccc(F)cc3Cl)nc12` it was 128 to 130 °C.
In the case of `Cc1cnn(CC(=O)O)c1`, the melting point lay in the range of 172 to 174 °C.
Next, `Nc1nnc(CC2CCCC2)o1`: 174 to 176 °C; `O=C(O)c1cc2ccccc2c(OCC2CC2)n1`: 177 to 179 °C; `NNC(=O)Cc1nc(-c2ccccc2)cs1`: 135 to 140 °C.
Regarding `O=Cc1ccc(Sc2ncccn2)c([N+](=O)[O-])c1`, the melting point was in the range of 100 to 102 °C.
In the case of `O=C(O)CNC(=O)c1cc2c(s1)CCCC2` it was 177 to 179 °C; in that of `CCCS(=O)(=O)Nc1cccc(O)c1`, 101 to 103 °C; in that of `CCOc1c(Cl)cc(C(=O)O)cc1OC`, 116 to 118 °C.
`NNc1ncccc1C(F)(F)F` registered a melting point of 71 to 73 °C.
`O=C(O)CNC(=O)c1ccc2ccccc2c1` registered a melting point of 171 to 175 °C.
In turn, `Nc1nncc(-c2cccc(Cl)c2)n1` had a melting point of 219 to 221 °C.
In the case of `CCn1cnnc1S` it was 98 to 100 °C; in that of `COc1ccc(Nc2ncccc2N)cc1`, 164 to 166 °C; in that of `CS(=O)(=O)c1ccccc1CC(=O)O`, 154 to 156 °C.
Molecule `COc1c(C(=O)O)c(C)nn1C` yielded a melting point of 172 to 174 °C.
`O=C(O)c1c(-n2cccc2)sc2c1CCCC2` came in with a melting point of 158 to 162 °C.
For `O=[N+]([O-])c1ccc(-c2ncc(CO)o2)cc1`, the melting point was in the range of 154 to 156 °C.
In the case of `N#CCc1nc(-c2c(F)cccc2F)cs1` it was 75 to 77 °C.
Next, `N#Cc1cc(F)ccc1-n1ccc(N)n1`: 128 to 130 °C; `N#Cc1ccnc(Oc2ccccc2Cl)c1`: 79 to 81 °C.
Turning to `COCCCNC(=O)CC#N`, the melting point fell in the range of 63 to 65 °C.
`CN1CN=C(S)NC1` displayed a melting point of 173 to 177 °C.
In turn, `O=C(O)c1ccc(CS)cc1` displayed a melting point of 179 to 181 °C.
Next, `COc1ccc(Br)c(-c2nnc(N)o2)c1`: 189 to 191 °C; `CCOC(=O)Nc1ccc(Br)cc1N`: 79 to 81 °C; `N#CCn1cc(C(=O)O)c2ccccc21`: 199 to 201 °C.
In the case of `O=C(O)c1cnoc1-c1ccc(Cl)s1` it was 191 to 193 °C.
In the case of `O=C(c1cccc(F)c1)c1cccc(Cl)c1` it was 62 to 64 °C; in that of `COc1ccc(-c2nc(N)sc2C)cc1`, 120 to 122 °C.
In the case of `O=[N+]([O-])c1cc(NCC2CC2)ccc1S(=O)(=O)NCC1CC1`, the melting point was 132 to 134 °C.
In the case of `NNC(=O)Nc1ccc(S(N)(=O)=O)cc1`, the melting point is 216 to 218 °C.
Next, `Cc1ccc2cccc(C(=O)O)c2n1`: 152 to 154 °C; `CCO/C=C(\C#N)c1nc(C)cs1`: 70 to 72 °C.
In the case of `Fc1ccc(CBr)c(Br)c1` it was 51 to 53 °C; in that of `Cc1sc(N)c(C#N)c1C`, 134 to 136 °C.
With `CCNc1nc2cc(Cl)ccc2s1`, the melting point was 118 to 120 °C.
In the case of `CC1(C)NC(=O)N2C1=NC(=N)C2(C)C` it was 236 to 238 °C.
As for `Cc1csc2nc(CO)cc(=O)n12`, the melting point lay in the range of 154 to 156 °C.
In the case of `O=C(CCl)NCC(=O)Nc1ccccc1Br` it was 218 to 220 °C.
Next, `COC(=O)C1CCN(c2nc3ccccc3s2)CC1`: 91 to 93 °C.
`CC(Cl)c1nnc(-c2cccs2)o1` (configuration not stated) returned a melting point of 211 to 213 °C.
In the case of `NS(=O)(=O)c1cnn(CC(=O)O)c1` it was 156 to 158 °C.
Next, `Cc1cc(C(=O)O)c(C)n1C1CCCCC1`: 204 to 206 °C; `CC1CC1c1ccc(C(=O)O)o1` (configuration not stated): 55 to 57 °C.
Molecule `CCc1noc(-c2cc(Cl)ccc2N)n1` came in with a melting point of 107 to 109 °C.
Next, `O=C(O)c1ccc(-n2ncc(Cl)c(Cl)c2=O)cc1`: 314 to 316 °C.
Molecule `CCc1ccc(C(=O)N2CCC(C(=O)O)CC2)o1` returned a melting point of 112 to 114 °C.
In the case of `Cc1nc(N)c(Cl)cc1Cl` it was 136 to 138 °C; in that of `Nc1nc2c(F)c(F)ccc2s1`, 49 to 51 °C.
Next, `c1ccc(CCNc2nc(-c3ccccc3)cs2)cc1`: 115 to 117 °C; `C#CCOc1ccc(C=O)cc1`: 75 to 77 °C; `O=C(O)c1cncc(N2CCOCC2)c1`: 258 to 260 °C.
In the case of `CCN(CC)S(=O)(=O)c1ccc(OC)c(C(=O)O)c1` it was 119 to 121 °C.
`COC(=O)c1ccc(N)c(OCC(F)(F)F)c1` gave a melting point of 117 to 119 °C.
Molecule `O=Cc1c(N2CCOCC2)nc2ccccn12` yielded a melting point of 164 to 166 °C.
Next, `Nc1cnn(-c2ccccc2F)c1`: 59 to 61 °C; `O=c1[nH]cnc2cc(Br)ccc12`: 262 to 264 °C; `NS(=O)(=O)c1nc2ccccc2[nH]1`: 215 to 217 °C.
Consider `Cc1nc(-c2ncccn2)sc1C(=O)O`, for which the melting point lay in the range of 224 to 226 °C.
In the case of `Cc1ccc(C)n1-c1nc(CC(=O)O)cs1` it was 100 to 102 °C.
In the case of `Cc1ccc(N2N=C(C(=O)O)NCC2=O)cc1` it was 98 to 100 °C; in that of `Nc1cccc(-c2nnco2)c1`, 66 to 68 °C.
Molecule `Cc1cc(O)c([N+](=O)[O-])cc1S(=O)(=O)Cl` showed a melting point of 63 to 65 °C.
Next, `COc1ccc(C2(c3ccc(OC)cc3)NC(=O)NC2=O)cc1`: 237 to 239 °C.
Next, `O=C(O)c1nnn(-c2ccc(F)cc2)c1C(F)(F)F`: 146 to 148 °C; `CNc1cc(Cl)cc(CO)c1`: 49 to 51 °C; `O=Cc1cc(C(=O)O)cs1`: 173 to 175 °C.
As to `COC(=O)c1cc(Cl)c2cc(Br)ccc2n1`, the melting point was 163 to 165 °C.
Next, `NC(=S)c1cnn(-c2ccccc2)c1`: 181 to 183 °C; `CCn1c(C)nnc1S`: 129 to 131 °C.
In the case of `O=C(O)C1CC1c1cccc2ccccc12` (configuration not stated) it was 116 to 118 °C; in that of `O=C(c1ccc(Br)c([N+](=O)[O-])c1)N1CCOCC1`, 114 to 116 °C; in that of `O=C(O)c1ccc(NC(=O)c2ccccc2)cc1`, 297 to 299 °C.
The molecule `Cc1cc([N+](=O)[O-])c(S(=O)(=O)Cl)cc1C` returned a melting point of 79 to 81 °C.

These data come from a melting point compilation (Tetko et al.).
